Experiments:
Assay in all cases: isoTOP-ABPP mapping of AEA-DA-modified peptides in Neuro2a cells
Type in all cases: cell-based
[1] = molecular target: T1, AEA-DA-modified peptides in Neuro2a cells (Mus musculus, UniProt P61205); details: AEA-DA-modified peptide ARF3 P61205 39-60, SEQ ID NO 11; probe 100 μM, 12 replicates
T1 construct: endogenous in cells; host or cells: Neuro2a

[2] = molecular target: T2, AEA-DA-modified peptides in Neuro2a cells (Mus musculus, UniProt Q8BFY9); details: AEA-DA-modified peptide TNPO1 Q8BFY9 45-65, SEQ ID NO 114; probe 100 μM, 12 replicates
T2 construct: endogenous in cells; host or cells: Neuro2a

[3] = molecular target: T3, AEA-DA-modified peptides in Neuro2a cells (Mus musculus, UniProt Q8VC28); details: AEA-DA-modified peptide AKR1C13 Q8VC28 48-69, SEQ ID NO 7; probe 100 μM, 12 replicates
T3 construct: endogenous in cells; host or cells: Neuro2a

[4] = molecular target: T4, AEA-DA-modified peptides in Neuro2a cells (Mus musculus, UniProt Q8BGC4); details: AEA-DA-modified peptide ZADH2 Q8BGC4 86-115, SEQ ID NO 122; probe 100 μM, 12 replicates
T4 construct: endogenous in cells; host or cells: Neuro2a

[5] = molecular target: T5, AEA-DA-modified peptides in Neuro2a cells (Mus musculus, UniProt P70699); details: AEA-DA-modified peptide GAA P70699 904-935, SEQ ID NO 41; probe 100 μM, 12 replicates
T5 construct: endogenous in cells; host or cells: Neuro2a

[6] = molecular target: T6, AEA-DA-modified peptides in Neuro2a cells (Mus musculus, UniProt P21619); details: AEA-DA-modified peptide LMNB2 P21619 137-160, SEQ ID NO 57; probe 100 μM, 12 replicates
T6 construct: endogenous in cells; host or cells: Neuro2a

[7] = molecular target: T7, AEA-DA-modified peptides in Neuro2a cells (Mus musculus, UniProt Q9CZS1); details: AEA-DA-modified peptide ALDH1B1 Q9CZS1 119-147, SEQ ID NO 8; probe 100 μM, 12 replicates
T7 construct: endogenous in cells; host or cells: Neuro2a

[8] = molecular target: T8, AEA-DA-modified peptides in Neuro2a cells (Mus musculus, UniProt Q9Z2Z6); details: AEA-DA-modified peptide SLC25A20 Q9Z2Z6 179-195, SEQ ID NO 103; probe 100 μM, 12 replicates
T8 construct: endogenous in cells; host or cells: Neuro2a

[9] = molecular target: T9, AEA-DA-modified peptides in Neuro2a cells (Mus musculus, UniProt P61750); details: probe 100 μM, 12 replicates
T9 construct: endogenous in cells; host or cells: Neuro2a

[10] = molecular target: T10, AEA-DA-modified peptides in Neuro2a cells (Mus musculus, UniProt Q9CQ45); details: AEA-DA-modified peptide NENF Q9CQ45 84-94, SEQ ID NO 68; probe 100 μM, 12 replicates
T10 construct: endogenous in cells; host or cells: Neuro2a

[11] = molecular target: T11, AEA-DA-modified peptides in Neuro2a cells (Mus musculus, UniProt Q8BWM0); details: AEA-DA-modified peptide PTGES2 Q8BWM0 269-279, SEQ ID NO 92; probe 100 μM, 12 replicates
T11 construct: endogenous in cells; host or cells: Neuro2a

[12] = molecular target: T12, AEA-DA-modified peptides in Neuro2a cells (Mus musculus, UniProt O09061); details: AEA-DA-modified peptide PSMB1 O09061 127-146, SEQ ID NO 90; probe 100 μM, 12 replicates
T12 construct: endogenous in cells; host or cells: Neuro2a
T12 sequence (O09061 28-240): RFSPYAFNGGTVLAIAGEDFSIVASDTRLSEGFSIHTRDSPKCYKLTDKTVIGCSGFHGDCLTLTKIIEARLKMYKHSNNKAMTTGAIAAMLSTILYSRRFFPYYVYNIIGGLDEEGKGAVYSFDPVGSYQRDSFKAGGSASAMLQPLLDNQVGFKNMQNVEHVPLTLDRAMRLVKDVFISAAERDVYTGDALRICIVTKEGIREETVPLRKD

T9 sequence (P61750 whole entry): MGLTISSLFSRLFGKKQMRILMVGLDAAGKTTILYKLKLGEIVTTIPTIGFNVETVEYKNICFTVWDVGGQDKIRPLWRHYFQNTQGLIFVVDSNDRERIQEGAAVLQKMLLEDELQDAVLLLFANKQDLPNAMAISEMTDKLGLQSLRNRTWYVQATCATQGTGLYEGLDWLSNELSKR
T11 sequence (Q8BWM0 whole entry): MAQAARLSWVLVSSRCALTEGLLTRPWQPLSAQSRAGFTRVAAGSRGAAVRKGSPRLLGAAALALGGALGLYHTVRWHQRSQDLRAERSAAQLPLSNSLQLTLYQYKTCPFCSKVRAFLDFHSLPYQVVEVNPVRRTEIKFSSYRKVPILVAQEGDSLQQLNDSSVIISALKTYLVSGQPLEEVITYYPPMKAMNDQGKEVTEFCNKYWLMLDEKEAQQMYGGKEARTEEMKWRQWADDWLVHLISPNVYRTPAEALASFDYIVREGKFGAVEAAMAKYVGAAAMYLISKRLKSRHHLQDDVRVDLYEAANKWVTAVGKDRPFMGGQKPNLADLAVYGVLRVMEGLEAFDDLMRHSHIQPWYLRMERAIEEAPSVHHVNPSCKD
T4 sequence (Q8BGC4 whole entry): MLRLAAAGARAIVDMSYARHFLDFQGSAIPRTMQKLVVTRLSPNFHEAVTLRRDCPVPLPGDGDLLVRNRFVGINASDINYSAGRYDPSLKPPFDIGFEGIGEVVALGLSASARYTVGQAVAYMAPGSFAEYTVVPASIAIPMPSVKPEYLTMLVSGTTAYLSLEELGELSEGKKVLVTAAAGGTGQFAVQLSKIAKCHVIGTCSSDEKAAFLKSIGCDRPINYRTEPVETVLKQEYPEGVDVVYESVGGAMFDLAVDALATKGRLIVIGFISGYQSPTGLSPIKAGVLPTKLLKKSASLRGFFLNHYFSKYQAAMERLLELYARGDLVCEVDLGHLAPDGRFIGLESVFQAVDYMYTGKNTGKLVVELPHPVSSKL
T6 sequence (P21619 whole entry): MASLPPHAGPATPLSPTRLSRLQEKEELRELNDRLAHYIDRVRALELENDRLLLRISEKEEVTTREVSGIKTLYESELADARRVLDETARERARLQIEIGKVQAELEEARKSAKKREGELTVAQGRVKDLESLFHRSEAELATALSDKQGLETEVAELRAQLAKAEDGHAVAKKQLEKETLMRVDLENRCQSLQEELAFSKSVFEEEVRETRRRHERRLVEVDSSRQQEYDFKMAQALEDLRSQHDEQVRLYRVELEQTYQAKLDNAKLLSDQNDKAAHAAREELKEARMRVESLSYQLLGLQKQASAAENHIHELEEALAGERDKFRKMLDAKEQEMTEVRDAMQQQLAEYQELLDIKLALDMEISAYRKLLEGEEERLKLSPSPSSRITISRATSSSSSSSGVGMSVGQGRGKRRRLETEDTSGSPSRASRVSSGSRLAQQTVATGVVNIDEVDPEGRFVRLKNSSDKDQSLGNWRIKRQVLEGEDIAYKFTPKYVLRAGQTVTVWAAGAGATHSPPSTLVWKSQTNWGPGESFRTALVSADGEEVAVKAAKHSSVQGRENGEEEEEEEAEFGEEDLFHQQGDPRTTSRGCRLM
T3 sequence (Q8VC28 whole entry): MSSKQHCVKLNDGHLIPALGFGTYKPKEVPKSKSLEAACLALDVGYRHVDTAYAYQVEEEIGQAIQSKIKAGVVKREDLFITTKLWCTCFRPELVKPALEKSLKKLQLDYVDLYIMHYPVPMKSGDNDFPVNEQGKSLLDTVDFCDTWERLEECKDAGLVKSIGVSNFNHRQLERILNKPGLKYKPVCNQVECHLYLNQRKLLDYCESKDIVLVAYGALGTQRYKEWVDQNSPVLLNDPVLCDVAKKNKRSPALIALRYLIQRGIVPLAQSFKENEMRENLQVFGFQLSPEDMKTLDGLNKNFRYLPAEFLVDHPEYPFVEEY
T5 sequence (P70699 70-953): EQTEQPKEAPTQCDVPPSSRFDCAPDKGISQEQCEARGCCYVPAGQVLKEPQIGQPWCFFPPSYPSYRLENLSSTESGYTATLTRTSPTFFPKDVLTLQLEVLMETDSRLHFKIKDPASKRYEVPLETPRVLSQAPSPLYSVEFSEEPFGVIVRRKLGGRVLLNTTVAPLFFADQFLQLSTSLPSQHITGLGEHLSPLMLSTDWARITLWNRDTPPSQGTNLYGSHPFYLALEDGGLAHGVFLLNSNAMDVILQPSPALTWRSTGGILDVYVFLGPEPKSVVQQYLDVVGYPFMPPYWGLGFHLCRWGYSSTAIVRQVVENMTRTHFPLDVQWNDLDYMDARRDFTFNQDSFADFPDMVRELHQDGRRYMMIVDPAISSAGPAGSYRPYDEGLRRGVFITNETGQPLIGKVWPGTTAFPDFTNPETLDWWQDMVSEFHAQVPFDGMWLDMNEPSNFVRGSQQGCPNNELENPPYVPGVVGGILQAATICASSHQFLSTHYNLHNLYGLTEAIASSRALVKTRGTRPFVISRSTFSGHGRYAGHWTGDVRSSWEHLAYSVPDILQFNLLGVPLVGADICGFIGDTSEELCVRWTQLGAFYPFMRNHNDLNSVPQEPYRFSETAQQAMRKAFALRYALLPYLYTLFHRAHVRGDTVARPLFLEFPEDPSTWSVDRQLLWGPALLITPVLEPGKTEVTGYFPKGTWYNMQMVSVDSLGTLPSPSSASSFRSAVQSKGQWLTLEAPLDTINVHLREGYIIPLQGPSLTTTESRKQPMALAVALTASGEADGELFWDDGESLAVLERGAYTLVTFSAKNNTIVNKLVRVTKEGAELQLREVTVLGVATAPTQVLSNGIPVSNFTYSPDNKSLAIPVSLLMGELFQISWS
T8 sequence (Q9Z2Z6 whole entry): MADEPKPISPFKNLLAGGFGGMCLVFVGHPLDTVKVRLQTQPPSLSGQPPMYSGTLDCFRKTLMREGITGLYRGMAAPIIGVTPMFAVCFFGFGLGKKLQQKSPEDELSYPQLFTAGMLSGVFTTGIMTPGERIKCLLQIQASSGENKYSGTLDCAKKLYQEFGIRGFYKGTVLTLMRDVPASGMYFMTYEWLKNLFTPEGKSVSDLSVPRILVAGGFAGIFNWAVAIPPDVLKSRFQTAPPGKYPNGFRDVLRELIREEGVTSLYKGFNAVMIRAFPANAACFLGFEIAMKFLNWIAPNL
T2 sequence (Q8BFY9 whole entry): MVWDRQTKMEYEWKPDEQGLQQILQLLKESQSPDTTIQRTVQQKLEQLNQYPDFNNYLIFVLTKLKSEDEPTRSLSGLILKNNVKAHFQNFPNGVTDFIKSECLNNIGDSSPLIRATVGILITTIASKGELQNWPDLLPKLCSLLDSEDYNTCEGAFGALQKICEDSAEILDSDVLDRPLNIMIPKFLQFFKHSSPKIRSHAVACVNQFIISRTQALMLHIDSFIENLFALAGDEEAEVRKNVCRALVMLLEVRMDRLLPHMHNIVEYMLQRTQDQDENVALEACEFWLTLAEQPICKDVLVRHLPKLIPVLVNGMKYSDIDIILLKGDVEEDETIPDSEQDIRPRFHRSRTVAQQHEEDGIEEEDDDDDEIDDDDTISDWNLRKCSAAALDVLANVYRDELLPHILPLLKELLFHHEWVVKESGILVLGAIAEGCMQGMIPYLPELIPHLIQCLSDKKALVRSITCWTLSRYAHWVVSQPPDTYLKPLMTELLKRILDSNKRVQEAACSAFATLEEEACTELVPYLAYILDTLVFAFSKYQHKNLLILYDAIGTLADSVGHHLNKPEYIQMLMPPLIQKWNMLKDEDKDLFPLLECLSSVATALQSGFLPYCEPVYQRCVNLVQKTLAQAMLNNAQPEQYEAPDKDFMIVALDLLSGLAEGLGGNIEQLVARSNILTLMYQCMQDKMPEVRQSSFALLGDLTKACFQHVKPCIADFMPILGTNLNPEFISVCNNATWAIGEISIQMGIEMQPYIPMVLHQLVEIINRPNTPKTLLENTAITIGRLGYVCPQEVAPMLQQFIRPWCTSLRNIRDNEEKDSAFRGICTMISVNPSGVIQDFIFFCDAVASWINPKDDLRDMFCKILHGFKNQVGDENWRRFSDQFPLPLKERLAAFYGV
T7 sequence (Q9CZS1 20-519): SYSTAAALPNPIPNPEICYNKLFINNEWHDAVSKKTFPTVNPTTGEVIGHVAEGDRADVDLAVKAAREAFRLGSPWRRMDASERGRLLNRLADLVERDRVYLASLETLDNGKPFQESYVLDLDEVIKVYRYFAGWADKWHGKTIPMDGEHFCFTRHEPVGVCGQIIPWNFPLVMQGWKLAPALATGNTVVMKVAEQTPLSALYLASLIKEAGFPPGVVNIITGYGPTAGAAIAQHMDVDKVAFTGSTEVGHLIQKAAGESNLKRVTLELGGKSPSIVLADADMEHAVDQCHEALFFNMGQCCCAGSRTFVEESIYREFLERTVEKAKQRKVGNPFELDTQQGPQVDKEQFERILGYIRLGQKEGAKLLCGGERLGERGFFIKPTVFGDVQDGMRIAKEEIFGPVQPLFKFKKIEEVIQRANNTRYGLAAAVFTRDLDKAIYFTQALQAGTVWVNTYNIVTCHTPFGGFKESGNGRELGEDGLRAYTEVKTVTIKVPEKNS
T1 sequence (P61205 whole entry): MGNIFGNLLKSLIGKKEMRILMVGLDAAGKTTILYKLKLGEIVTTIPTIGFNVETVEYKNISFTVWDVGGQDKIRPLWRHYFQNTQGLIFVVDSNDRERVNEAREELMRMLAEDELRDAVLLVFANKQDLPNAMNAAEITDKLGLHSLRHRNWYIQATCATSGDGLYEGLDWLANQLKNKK

## C#CCCCC1(CC/C=C\C/C=C\C/C=C\CCCC(=O)NCCO)N=N1 [AEA-DA, (5Z,8Z,11Z)-N-(2-hydroxyethyl)-14-(3-(pent-4-yn-1-yl)-3H-diazirin-3-yl)tetradeca-5,8,11-trienamide]
[1]
  Times observed: 9
[2]
  Times observed: 5
[3]
  Times observed: 4
[4]
  Times observed: 8
[5]
  Times observed: 11
[6]
  Times observed: 5
[7]
  Times observed: 4
[8]
  Times observed: 4
[9]; AEA-DA-modified peptide ARF4 P61750 39-60, SEQ ID NO 13
  Times observed: 9
[9]; AEA-DA-modified peptide ARF4 P61750 110-128, SEQ ID NO 12
  Times observed: 2
[10]
  Times observed: 4
[11]
  Times observed: 3
[12]
  Times observed: 8
